Measurements published in patent publication US9981942B2, “Piperidine derivatives having multimodal activity against pain” (LABORATORIOS DEL DR. ESTEVE S.A., priority 2013, dated 2018).

These molecules were tested on σ1 receptor and the μ-opiod receptor (assay: μ and σ1 dual binding: combined class from the Ki of both radioligand assays). Conditions: combined class for Ki-μ and Ki-σ1; transfected HEK-293 membranes (σ1), transfected CHO-K1 cell membranes (μ).
Set-up: species or system human; key to μ and σ1 dual binding: +: Both Ki-μ and Ki-σ1>=500 nM; ++: One Ki<500 nM while the other Ki is >=500 nM; +++: Both Ki-μ and Ki-σ1<500 nM; ++++: Both Ki-μ and Ki-σ1<100 nM
Procedure: To investigate binding properties of σ1 receptor ligands to human σ1 receptor, transfected HEK-293 membranes and [^3H](+)-pentazocine (Perkin Elmer, NET-1056), as the radioligand, were used. The assay was carried out with 7 μg of membrane suspension, 5 nM of [^3H](+)-pentazocine in either absence or presence of either buffer or 10 μM Haloperidol for total and non-specific binding, respectively. Binding buffer contained Tris-HCl 50 mM at pH 8. Plates were incubated at 37° C. for 120 minutes. After the incubation period, the reaction mix was then transferred to MultiScreen HTS, FC plates (Millipore), filtered and plates were washed 3 times with ice-cold 10 mM Tris-HCL (pH7.4). Filters were dried and counted at approximately 40% efficiency in a MicroBeta scintillation counter (Perkin-Elmer) using EcoScint liquid scintillation cocktail
To investigate binding properties of mu-opioid receptor ligands to human μ-opioid receptor, transfected CHO-K1 cell membranes and [^3H]-DAMGO (Perkin Elmer, ES-542-C), as the radioligand, were used. The assay was carried out with 20 μg of membrane suspension, 1 nM of [^3H]-DAMGO in either absence or presence of either buffer or 10 μM Naloxone for total and non-specific binding, respectively. Binding buffer contained Tris-HCl 50 mM, MgCl2 5 mM at pH 7.4. Plates were incubated at 27° C. for 60 minutes. After the incubation period, the reaction mix was then transferred to MultiScreen HTS, FC plates (Millipore), filtered and plates were washed 3 times with ice-cold 10 mM Tris-HCL (pH 7.4). Filters were dried and counted at approximately 40% efficiency in a MicroBeta scintillation counter (Perkin-Elmer) using EcoScint liquid scintillation cocktail.
The following scale as been adopted for representing the binding to the σ1 receptor and the μ-opiod receptor expressed as Ki: • + Both Ki-μ and Ki-σ1>=500 nM • ++ One Ki<500 nM while the other Ki is >=500 nM • +++ Both Ki-μ and Ki-σ1<500 nM • ++++ Both Ki-μ and Ki-σ1<100 nM
For CS(=O)(=O)Nc1cccc(C2CCN(Cc3cn(Cc4ccccn4)nn3)CC2)c1 [Example 98, N-(3-(1-((1-(pyridin-2-ylmethyl)-1H-1,2,3-triazol-4-yl)methyl)piperidin-4-yl)phenyl)methanesulfonamide], the “μ and σ1 dual binding” value was “++”. For c1ccc(Cn2cc(CN3CCC(c4cccc(Nc5nccs5)n4)CC3)nn2)nc1 [Example 230, N-(6-(1-((1-(pyridin-2-ylmethyl)-1H-1,2,3-triazol-4-yl)methyl)piperidin-4-yl)pyridin-2-yl)thiazol-2-amine], the “μ and σ1 dual binding” value was “++”. In the case of CC(C)S(=O)(=O)Nc1cccc(C2CCN(Cc3cn([C@@H]4c5ccccc5C[C@H]4O)nn3)CC2)c1 [Example 104, N-(3-(1-((1-((1R,2R)-2-hydroxy-2,3-dihydro-1H-inden-1-yl)-1H-1,2,3-triazol-4-yl)methyl)piperidin-4-yl)phenyl)propane-2-sulfonamide], the “μ and σ1 dual binding” value is reported as “++”. CC(C)S(=O)(=O)Nc1cccc(C2CCN(Cc3cn(C(CO)c4ccccc4)nn3)CC2)c1 (centres unmarked) [Example 130, N-(3-(1-((1-(2-hydroxy-1-phenylethyl)-1H-1,2,3-triazol-4-yl)methyl)piperidin-4-yl)phenyl)propane-2-sulfonamide] was tested, and the “μ and σ1 dual binding” value was “++”. For CC(C)S(=O)(=O)Nc1cccc(C2CCN(Cc3cn(Cc4ccccn4)nn3)CC2)c1 [Example 81, N-(3-(1-((1-(pyridin-2-ylmethyl)-1H-1,2,3-triazol-4-yl)methyl)piperidin-4-yl)phenyl)propane-2-sulfonamide], the “μ and σ1 dual binding” value was “++”. CC(C)S(=O)(=O)Nc1cccc(C2CCN(Cc3cncn3Cc3ccccn3)CC2)c1 [Example 187, N-(3-(1-((1-(pyridin-2-ylmethyl)-1H-imidazol-5-yl)methyl)piperidin-4-yl)phenyl)propane-2-sulfonamide] was tested, and the “μ and σ1 dual binding” value was “++”. CC(=O)Nc1nc2ccc(C3CCN(Cc4cn(-c5ccccc5)nn4)CC3)cc2s1 [Example 74, N-(6-(1-((1-phenyl-1H-1-1,2,3-triazol-4-yl)methyl)piperidin-4-yl)benzo[d]thiazol-2-yl)acetamide] was tested, and the “μ and σ1 dual binding” value was “++”. For CC(C)S(=O)(=O)Nc1cccc(C2CCN(Cc3cn(Cc4ncccc4C(F)(F)F)nn3)CC2)c1 [Example 121, N-(3-(1-((1-((3-(trifluoromethyl)pyridin-2-yl)methyl)-1H-1,2,3-triazol-4-yl)methyl)piperidin-4-yl)phenyl)propane-2-sulfonamide], the “μ and σ1 dual binding” value was “++”.

Same assay, conditions: transfected HEK-293 membranes (σ1), transfected CHO-K1 cell membranes (μ)
CS(=O)(=O)Nc1cc(C2CCN(Cc3cn(-c4ccccc4)nn3)CC2)ccc1F [Example 34, N-(2-fluoro-5-(1-((1-phenyl-1H-1,2,3-triazol-4-yl)methyl)piperidin-4-yl)phenyl)methanesulfonamide] was tested, and the Ki range for both μ and σ1 (dual-binding class) was less than 500 nM. CS(=O)(=O)Nc1cccc(C2CCN(Cc3cn(C4CCCCC4)nn3)CC2)c1 [Example 22, N-(3-(1-((1-cyclohexyl-1H-1,2,3-triazol-4-yl)methyl)piperidin-4-yl)phenyl)methanesulfonamide] gave a Ki range for both μ and σ1 (dual-binding class) of less than 500 nM. For Oc1cccc(C2CCN(Cc3cn([C@H]4c5ccccc5C[C@@H]4O)nn3)CC2)c1 [Example 65, (1S,2S)-1-(4-((4-(3-hydroxyphenyl)piperidin-1-yl)methyl)-1H-1,2,3-triazol-1-yl)-2,3-dihydro-1H-inden-2-ol], the Ki range for both μ and σ1 (dual-binding class) was less than 500 nM. Molecule Cc1ccc(F)c(-n2cc(CN3CCC(c4cccc(O)c4)CC3)nn2)c1 [Example 224, 3-(1-((1-(2-fluoro-5-methylphenyl)-1H-1,2,3-triazol-4-yl)methyl)piperidin-4-yl)phenol] has a Ki range for both μ and σ1 (dual-binding class) of less than 100 nM. Work on Oc1ccc(-n2cc(CN3CCC(c4cccc(O)c4)CC3)nn2)cc1 [Example 107, 3-(1-((1-(4-hydroxyphenyl)-1H-1,2,3-triazol-4-yl)methyl)piperidin-4-yl)phenol] yielded a Ki range for both μ and σ1 (dual-binding class) of less than 100 nM. In the case of Oc1cccc(C2CCN(Cc3cn(-c4ccc(Cl)cn4)nn3)CC2)c1 [Example 148, 3-(1-((1-(5-chloropyridin-2-yl)-1H-1,2,3-triazol-4-yl)methyl)piperidin-4-yl)phenol], the Ki range for both μ and σ1 (dual-binding class) is reported as less than 100 nM. For Oc1cccc(C2CCN(Cc3cn(-c4ccccn4)nn3)CC2)c1 [Example 84, 3-(1-((1-(pyridin-2-yl)-1H-1,2,3-triazol-4-yl)methyl)piperidin-4-yl)phenol], the Ki range for both μ and σ1 (dual-binding class) was less than 100 nM. With c1ccc(-n2cc(CN3CCC(c4ccc5nc[nH]c5c4)CC3)nn2)cc1 [Example 21, 6-(1-((1-phenyl-1H-1,2,3-triazol-4-yl)methyl)piperidin-4-yl)-1H-benzo[d]imidazole] the Ki range for both μ and σ1 (dual-binding class) was less than 500 nM. Oc1cccc(C2CCN(Cc3cn(Cc4ncccc4Cl)nn3)CC2)c1 [Example 144, 3-(1-((1-((3-chloropyridin-2-yl)methyl)-1H-1,2,3-triazol-4-yl)methyl)piperidin-4-yl)phenol] was tested, and the Ki range for both μ and σ1 (dual-binding class) was less than 500 nM. CCC(=O)Nc1cc(C2CCN(Cc3cn(-c4ccccc4)nn3)CC2)ccn1 [Example 196, N-(4-(1-((1-phenyl-1H-1,2,3-triazol-4-yl)methyl)piperidin-4-yl)pyridin-2-yl)propionamide] was tested, and the Ki range for both μ and σ1 (dual-binding class) was no less than 500 nM. Work on Oc1cccc(C2CCN(Cc3cn([C@@H]4Cc5ccccc5[C@@H]4O)nn3)CC2)c1 [Example 96, (1S,2R)-2-(4-((4-(3-hydroxyphenyl)piperidin-1-yl)methyl)-1H-1,2,3-triazol-1-yl)-2,3-dihydro-1H-inden-1-ol] yielded a Ki range for both μ and σ1 (dual-binding class) of less than 500 nM. For CS(=O)(=O)Nc1cccc(C2CCN(Cc3cn(-c4ccccc4)nn3)CC2)c1 [Example 62, N-(3-(1-((1-phenyl-1H-1,2,3-triazol-4-yl)methyl)piperidin-4-yl)phenyl)methanesulfonamide], the Ki range for both μ and σ1 (dual-binding class) was less than 100 nM. With CC(=O)Nc1cc(F)cc(C2CCN(Cc3cn(-c4ccccc4)nn3)CC2)c1 [Example 39, N-(3-fluoro-5-(1-((1-phenyl-1H-1,2,3-triazol-4-yl)methyl)piperidin-4-yl)phenyl)acetamide] the Ki range for both μ and σ1 (dual-binding class) was less than 500 nM. Cc1nnc(-c2cccc(C3CCN(Cc4cn(-c5ccccc5)nn4)CC3)c2)o1 [Example 42, 2-methyl-5-(3-(1-((1-phenyl-1H-1,2,3-triazol-4-yl)methyl)piperidin-4-yl)phenyl)-1,3,4-oxadiazole] was tested, and the Ki range for both μ and σ1 (dual-binding class) was less than 500 nM. Molecule COc1cccc(Cn2cc(CN3CCC(c4cccc(NS(=O)(=O)C(C)C)c4)CC3)nn2)n1 [Example 113] has a Ki range for both μ and σ1 (dual-binding class) of less than 100 nM. In the case of OC[C@H](c1ccccc1)n1cc(CN2CCC(c3cccc(O)c3)CC2)nn1 (stereo in doubt) [Example 150, (S)-3-(1-((1-(2-hydroxy-1-phenylethyl)-1H-1,2,3-triazol-4-yl)methyl)piperidin-4-yl)phenol], the Ki range for both μ and σ1 (dual-binding class) is reported as less than 500 nM. In the case of Oc1cccc(C2CCN(CCc3cn(-c4ccccc4)nn3)CC2)c1 [Example 162, 3-(1-(2-(1-phenyl-1H-1,2,3-triazol-4-yl)ethyl)piperidin-4-yl)phenol], the Ki range for both μ and σ1 (dual-binding class) is reported as less than 100 nM. Oc1cccc(C2CCN(Cc3cn(-c4cc(F)ccc4F)nn3)CC2)c1 [Example 223, 3-(1-((1-(2,5-difluorophenyl)-1H-1,2,3-triazol-4-yl)methyl)piperidin-4-yl)phenol] gave a Ki range for both μ and σ1 (dual-binding class) of less than 100 nM.
